{"source": "patent US20220383986A1", "about": "“Complex System for Contextual Spectrum Mask Generation Based on Quantitative Imaging” (The Board of Trustees of the University of Illinois, priority 2021, published 2022)", "key": {"CHO cells [1]": {"system": "CHO cells", "conditions": "1 μM staurosporine added to culture medium; general description of the reagent; cited from earlier work"}, "CHO cells [2]": {"system": "CHO cells", "experiment": "time-lapse SLIM recording of CHO cells with and without staurosporine", "type": "cell-based, Chinese hamster", "conditions": "1 μM staurosporine in medium, measured for 10 hours, 37° C. and 5% CO2", "experimental": "CHO cells were plated on a glass bottom 6-well plate for optimal confluency. In addition to NucBlue/NucGreen staining, 1 μM of staurosporine (apoptotic inducing reagent) solution was added to the culture medium. This potent reagent permeates cell membrane and disrupts protein kinase, cAMP, and lead to apoptosis in 4-6 hours. The cells were then measured by SLIM and epi-fluorescence microscopy. The cells were maintained in regular incubation condition (37° C. and 5% concentration of CO2) throughout the experiment. In addition, it is verified that the cells were not affected by necrosis and lytic cell death.\nPICS on CHO cells and Evaluate the effect of lytic cell death: Before performing experiments on CHO cells, a preliminary study was conducted, as follows. Live cell cultures were prepared and split into the two groups. 1 μM of staurosporine was added into the medium of the experimental group, whereas the others were kept intact as control. Both control and experimental cells were measured with SLIM for 10 hours under regular incubation condition (37° C. and 5% concentration of CO2)."}}, "data": [{"smiles": "CN[C@@H]1C[C@H]2O[C@@](C)([C@@H]1OC)n1c3ccccc3c3c4c(c5c6ccccc6n2c5c31)C(=O)NC4", "note": "[staurosporine]", "values": [{"measurement": "time to apoptosis", "setting": "CHO cells [1]", "result": "4 to 6", "unit": "h"}, {"measurement": "cell characteristics in SLIM (QPI) images versus untreated control", "setting": "CHO cells [2]", "result": "cell volume decreased, and membrane ruptured or became detached"}]}]}
